This is an account of results in ChEMBL document CHEMBL4196062, “Trypanothione reductase inhibition and anti-leishmanial activity of all-hydrocarbon stapled α-helical peptides with improved proteolytic stability” (Eur J Med Chem, 2018).

Calls of active or inactive are those of the source. The calls are words filed in the database; no cut-off is given here. Positions of bridges follow the written chain, without caps; N, C: chain ends. Non-standard residues stand in square brackets, D forms with d. Residues, ends and D or L forms follow the SMILES beside them. *: point of attachment. X1 = O=C(O)c1ccc(NC(=S)*)cc1-c1c2ccc(=O)cc-2oc2cc(O)ccc12; R5 = C=CCCC[C@@](C)(N)C(=O)O; S5 = C=CCCC[C@](C)(N)C(=O)O; Nle = CCCC[C@H](N)C(=O)O; AEEA = NCCOCCOCC(=O)O

The target in series [1] is T1, Trypanothione reductase (Leishmania infantum, UniProt A4HSF7). The series is described as follows: Inhibition of dimerization of HIS/FLAG tagged Leishmania infantum trypanothione reductase incubated for 16 hrs by ELISA. On the technique in general: ELISA stands for enzyme-linked immunosorbent assay.
T1 sequence (A4HSF7 whole entry): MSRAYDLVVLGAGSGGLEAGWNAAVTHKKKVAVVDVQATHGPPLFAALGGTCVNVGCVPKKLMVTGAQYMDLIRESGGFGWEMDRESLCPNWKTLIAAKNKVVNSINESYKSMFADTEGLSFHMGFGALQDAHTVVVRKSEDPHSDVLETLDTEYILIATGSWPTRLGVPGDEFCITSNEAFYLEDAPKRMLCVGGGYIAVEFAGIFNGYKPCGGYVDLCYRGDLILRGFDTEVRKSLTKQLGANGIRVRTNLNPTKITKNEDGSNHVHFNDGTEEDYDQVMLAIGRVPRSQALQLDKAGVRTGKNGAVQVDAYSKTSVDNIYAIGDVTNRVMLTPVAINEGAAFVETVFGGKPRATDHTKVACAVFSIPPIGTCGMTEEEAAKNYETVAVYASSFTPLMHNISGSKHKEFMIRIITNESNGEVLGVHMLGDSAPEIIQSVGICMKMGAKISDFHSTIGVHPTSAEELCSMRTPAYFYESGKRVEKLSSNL
In series [2] the target is T2, Proteinase K (Engyodontium album, UniProt P06873). Nature of the series: Drug metabolism assessed as Tritirachium album proteinase K-mediated compound degradation by measuring half life at 100 uM measured up to 360 mins by HPLC method. The series is classed as ADME. Conditions: parengyodontium album.
T2 sequence (P06873 whole entry): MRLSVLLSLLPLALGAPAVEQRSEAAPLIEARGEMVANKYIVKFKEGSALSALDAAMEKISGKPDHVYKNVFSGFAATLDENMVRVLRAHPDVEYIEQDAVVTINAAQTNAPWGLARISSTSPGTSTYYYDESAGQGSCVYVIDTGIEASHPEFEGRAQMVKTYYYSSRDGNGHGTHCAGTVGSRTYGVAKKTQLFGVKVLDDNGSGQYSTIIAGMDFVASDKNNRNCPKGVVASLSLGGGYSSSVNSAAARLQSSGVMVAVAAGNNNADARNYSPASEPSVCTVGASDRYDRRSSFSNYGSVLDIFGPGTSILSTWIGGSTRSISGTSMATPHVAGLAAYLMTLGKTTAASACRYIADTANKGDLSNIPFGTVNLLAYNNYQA
Series [3] addresses T1, Trypanothione reductase. Nature of the series: Inhibition of recombinant Leishmania infantum trypanothione reductase using T[S]2 as substrate preincubated for 5 mins followed by substrate and NADPH addition measured for 1 hr.
In series [4] the target is T3, Glutathione reductase, mitochondrial (Homo sapiens) (UniProt P00390).
T3 sequence (whole entry): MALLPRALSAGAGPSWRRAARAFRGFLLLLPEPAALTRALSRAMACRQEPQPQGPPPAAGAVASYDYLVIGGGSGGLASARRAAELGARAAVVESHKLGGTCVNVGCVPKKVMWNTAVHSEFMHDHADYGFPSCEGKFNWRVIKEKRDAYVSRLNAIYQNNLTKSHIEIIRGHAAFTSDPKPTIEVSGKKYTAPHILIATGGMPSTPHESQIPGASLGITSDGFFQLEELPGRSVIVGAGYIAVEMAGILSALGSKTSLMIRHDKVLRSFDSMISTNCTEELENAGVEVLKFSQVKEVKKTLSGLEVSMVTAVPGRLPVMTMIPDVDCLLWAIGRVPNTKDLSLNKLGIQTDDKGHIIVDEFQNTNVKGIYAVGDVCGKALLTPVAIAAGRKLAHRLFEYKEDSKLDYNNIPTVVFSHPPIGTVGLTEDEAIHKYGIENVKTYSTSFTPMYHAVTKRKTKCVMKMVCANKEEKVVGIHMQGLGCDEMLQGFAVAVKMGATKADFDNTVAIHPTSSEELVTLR
The series is described as follows: Activation of recombinant human glutathione reductase using GSSG as substrate preincubated for 5 mins followed by substrate and NADPH addition.

In series [5] the target is Trypanothione reductase (Leishmania infantum) (UniProt A4HSF7). Nature of the series: Inhibition of dimerization of HIS/FLAG tagged Leishmania infantum trypanothione reductase assessed as dimer levels at 75 uM incubated for 16 hrs by ELISA. The arrangement: scale not given: the % may be the effect or the level left.
Trypanothione reductase (Leishmania infantum), sequence (A4HSF7 as listed by the source): as the sequence (A4HSF7 whole entry) above
Series [6] has the same target. Nature of the series: Inhibition of dimerization of HIS/FLAG tagged Leishmania infantum trypanothione reductase assessed as dimer levels at 9.375 uM incubated for 16 hrs by ELISA. Set-up: scale not given: the % may be the effect or the level left.
In series [7] the test system is Leishmania infantum. The series is described as follows: Antileishmanial activity against Leishmania infantum MCAN/ES/89/IPZ229/1/89 axenic amastigotes infected in human THP1 cells at 25 uM after 24 hrs by propidium iodide staining based fluorescence microscopic analysis. The class given is functional, organism-based.
The test system of series [8] is Leishmania infantum. Nature of the series: Antileishmanial activity against Leishmania infantum MCAN/ES/89/IPZ229/1/89 promastigotes at 25 uM after 24 hrs by propidium iodide staining based fluorescence microscopic analysis. The series is classed as functional, organism-based.
Series [9] deals with Trypanothione reductase (Leishmania infantum) (UniProt A4HSF7). The series is described as follows: Inhibition of dimerization of HIS/FLAG tagged Leishmania infantum trypanothione reductase assessed as dimer levels at 37.5 uM incubated for 16 hrs by ELISA. The arrangement: scale not given: the % may be the effect or the level left.
The target in series [10] is T2, Proteinase K. Nature of the series: Drug metabolism assessed as Tritirachium album proteinase K-mediated compound degradation by measuring half life at 100 uM measured up to 480 mins by HPLC method. Conditions: parengyodontium album. The class given is ADME.
Series [11] deals with Trypanothione reductase (Leishmania infantum) (UniProt A4HSF7). Nature of the series: Inhibition of dimerization of HIS/FLAG tagged Leishmania infantum trypanothione reductase assessed as dimer levels at 18.75 uM incubated for 16 hrs by ELISA. The arrangement: scale not given: the % may be the effect or the level left.
For series [12], the system named is Leishmania infantum. The series is described as follows: Antileishmanial activity against Leishmania infantum MCAN/ES/89/IPZ229/1/89 promastigotes after 24 hrs by propidium iodide staining based fluorescence microscopic analysis. The class given is functional, organism-based. Conditions: MCAN/ES/89/IPZ229/1/89, 24 h.
Another series deals with THP-1. The series is described as follows: Cytotoxicity against human THP1 cells assessed as reduction in cell viability after 24 hrs by propidium iodide staining based fluorescence microscopic analysis. Conditions: THP-1, 24 h.
The subject of series [13] is Leishmania infantum. The series is described as follows: Antileishmanial activity against Leishmania infantum MCAN/ES/89/IPZ229/1/89 axenic amastigotes infected in human THP1 cells after 24 hrs by propidium iodide staining based fluorescence microscopic analysis. The class given is functional, organism-based. Conditions: MCAN/ES/89/IPZ229/1/89, THP-1, 24 h.

As for `CCCC[C@H](NC(=O)[C@H](CC(C)C)NC(=O)[C@H](CCCC)NC(=O)[C@H](CO)NC(=O)[C@@H](NC(=O)CNC(=O)[C@@H](NC(=O)[C@H](CO)NC(=O)[C@H](CCC(N)=O)NC(=O)[C@@H](NC(=O)[C@@H](NC(=O)[C@H](CC(C)C)NC(=O)[C@@H]1CCCN1C(C)=O)[C@@H](C)CC)[C@@H](C)CC)C(C)C)[C@@H](C)CC)C(N)=O`, the IC50 at Trypanothione reductase [1] (read-out: IC50) came to 13.5 µM; at Trypanothione reductase [3], 1.2 µM. Also, at Proteinase K [2], the half-life at 100 µM fell in the range of 0.375 to 0.383 h.

Take `CCCC[C@@H](NC(=O)[C@H](CC(C)C)NC(=O)[C@@H](CCCC)NC(=O)[C@H](CO)NC(=O)[C@@H](NC(=O)CNC(=O)C1(C)CCCC=CCCC[C@@](C)(NC(=O)[C@@H](NC(=O)[C@H](CC(C)C)NC(=O)[C@@H]2CCCN2C(C)=O)[C@@H](C)CC)C(=O)N[C@@H](CCC(N)=O)C(=O)N[C@@H](CO)C(=O)N[C@@H](C(C)C)C(=O)N1)[C@@H](C)CC)C(N)=O` (some centres undefined): the result in series [4] was Active. Besides, the Activity in [5] was determined as 168%; in series [6], 140%; in series [9], 169%; in series [11], 144%. The result in the series on Leishmania infantum [7] and in the series on Leishmania infantum [8] was inactive. Further, the IC50 on Trypanothione reductase [3] came to 6.4 µM. Besides, the half-life at 100 µM on Proteinase K [10] is 3.53 h.

As for `CCCC[C@@H](NC(=O)[C@H](CC(C)C)NC(=O)[C@@H](CCCC)NC(=O)[C@H](CO)NC(=O)[C@@H](NC(=O)CNC(=O)[C@@H](NC(=O)[C@H](CO)NC(=O)[C@H](CCC(N)=O)NC(=O)[C@@H](NC(=O)[C@@H](NC(=O)[C@H](CC(C)C)NC(=O)[C@@H]1CCCN1C(C)=O)[C@@H](C)CC)[C@@H](C)CC)C(C)C)[C@@H](C)CC)C(N)=O`, the Activity in series [5] was found to be 2%; in series [6] it was 59%; in [9] it was 18%; in series [11], 56%.

For the compound `C=CCCC[C@@](C)(NC(=O)[C@@H](NC(=O)[C@H](CO)NC(=O)[C@H](CCC(N)=O)NC(=O)[C@@](C)(CCCC=C)NC(=O)[C@@H](NC(=O)[C@H](CCCCN)NC(=O)[C@@H]1CCCN1C(C)=O)[C@@H](C)CC)C(C)C)C(=O)N[C@H](C(=O)N[C@@H](CO)C(=O)NCC(=O)N[C@@H](CCCCN)C(=O)NCC(N)=O)[C@@H](C)CC` (Ac-PKI[R5]QSV[R5]ISGKG-NH2), the Activity came out at 184% in series [5], 125% in series [6], 175% in series [9] and 145% in [11]. Besides, the outcome in the series on Leishmania infantum [7] and in the series with Leishmania infantum [8] was inactive. The IC50 on Trypanothione reductase [3] turned out to be 12.5 µM.

Consider `C=CCCC[C@](C)(NC(=O)[C@H](CO)NC(=O)[C@H](CCC(N)=O)NC(=O)[C@@H](NC(=O)[C@](C)(CCCC=C)NC(=O)[C@H](CCCCN)NC(=O)[C@@H]1CCCN1C(C)=O)[C@@H](C)CC)C(=O)NCC(=O)N[C@H](C(=O)N[C@@H](CO)C(=O)N[C@@H](CCCC)C(=O)N[C@@H](CCCCN)C(=O)N[C@@H](CCCC)C(N)=O)[C@@H](C)CC` (Ac-PK[S5]IQS[S5]GIS[Nle]K[Nle]-NH2), for which the IC50 result against Trypanothione reductase [1] was “Not Active”; on Trypanothione reductase [3], 28.2 µM. The outcome in the series on Leishmania infantum [7] and in the series with Leishmania infantum [8] was inactive.

As for `CC[C@H](C)[C@H](NC(=O)[C@]1(C)CCCC=CCCC[C@](C)(NC(=O)[C@H](CCCCN)NC(=O)[C@@H]2CCCN2C(=O)[C@H](CCCNC(=N)N)NC(=O)[C@H](CCCNC(=N)N)NC(=O)[C@H](CCCNC(=N)N)NC(=O)[C@H](CCCNC(=N)N)NC(=O)[C@H](CCCNC(=N)N)NC(=O)[C@H](CCCNC(=N)N)NC(=O)[C@H](CCCNC(=N)N)NC(=O)[C@H](CCCNC(=N)N)NC(=O)[C@H](CCCNC(=N)N)NC(C)=O)C(=O)N[C@@H]([C@@H](C)CC)C(=O)N[C@@H](CCC(N)=O)C(=O)N[C@@H](CO)C(=O)NCC(=O)N1)C(=O)N[C@@H](CO)C(=O)NCC(=O)N[C@@H](CC(C)C)C(=O)NCC(N)=O` (Ac-RRRRRRRRRPK[S5]IQSG[S5]ISGLG-NH2; staple 12-17), the figures for the EC50 with Leishmania infantum [12], with THP-1 and in the series on Leishmania infantum [13] were 1.95 µM, 0.33 µM and 2.14 µM, respectively.

As to `CCCC[C@H](NC(=O)[C@H](CC(C)C)NC(=O)[C@H](CCCC)NC(=O)[C@H](CO)NC(=O)[C@@H](NC(=O)CNC(=O)[C@]1(C)CCCC=CCCC[C@@](C)(NC(=O)[C@H](CC(C)C)NC(=O)[C@@H]2CCCN2C(C)=O)C(=O)N[C@@H]([C@@H](C)CC)C(=O)N[C@@H](CCC(N)=O)C(=O)N[C@@H](CO)C(=O)N1)[C@@H](C)CC)C(N)=O` (stereo in doubt; 2a) [listing 1 of 2 here], the 50% inhibitory concentration (IC50) on Trypanothione reductase [3] was determined as 6.7 µM. Besides, at Proteinase K [10], the half-life at 100 µM is 6.97 h.

`CCCC[C@H](NC(=O)[C@H](CC(C)C)NC(=O)[C@H](CCCC)NC(=O)[C@H](CO)NC(=O)[C@@H](NC(=O)CNC(=O)[C@]1(C)CCCC=CCCC[C@@](C)(NC(=O)[C@H](CC(C)C)NC(=O)[C@@H]2CCCN2C(C)=O)C(=O)N[C@@H]([C@@H](C)CC)C(=O)N[C@@H](CCC(N)=O)C(=O)N[C@@H](CO)C(=O)N1)[C@@H](C)CC)C(N)=O` (stereo in doubt; 2a) [listing 2 of 2 here]: in series [4], the outcome was Active. The Activity worked out at 181% in series [5], 114% in series [6], 153% in [9] and 130% in [11]. The result with Leishmania infantum [7] and in the series with Leishmania infantum [8] was inactive.

Regarding `CCCC[C@H](NC(=O)[C@H](CC(C)C)NC(=O)[C@H](CCCC)NC(=O)[C@H](CO)NC(=O)[C@@H](NC(=O)CNC(=O)[C@]1(C)CCCC=CCCC[C@@](C)(NC(=O)[C@H](CC(C)C)NC(=O)[C@@H]2CCCN2C(C)=O)C(=O)N[C@@H]([C@@H](C)CC)C(=O)N[C@@H](CCC(N)=O)C(=O)N[C@@H](CO)C(=O)N1)[C@@H](C)CC)C(N)=O` (stereo in doubt; 2b), the results for the IC50 result at Trypanothione reductase [1] and on Trypanothione reductase [3] were “Not Active” and more than 25 µM, respectively.

`CC[C@H](C)[C@H](NC(=O)[C@]1(C)CCCC=CCCC[C@](C)(NC(=O)[C@H](CCCCN)NC(=O)[C@@H]2CCCN2C(=O)COCCOCCNC(=S)Nc2ccc(C(=O)O)c(-c3c4ccc(=O)cc-4oc4cc(O)ccc34)c2)C(=O)N[C@@H]([C@@H](C)CC)C(=O)N[C@@H](CCC(N)=O)C(=O)N[C@@H](CO)C(=O)NCC(=O)N1)C(=O)N[C@@H](CO)C(=O)NCC(=O)N[C@@H](CC(C)C)C(=O)NCC(N)=O` ({X1-AEEA}-PK[S5]IQSG[S5]ISGLG-NH2; staple 3-8): the outcome in the series on Leishmania infantum [7] and in the series on Leishmania infantum [8] was inactive.

Consider `CCCCCCCCCCCCCCCCCCOCC(COP(=O)([O-])OCC[N+](C)(C)C)OC` (centres undefined) [EDELFOSINE], for which the EC50 with Leishmania infantum [12] came out at 9 µM; with THP-1, 1 µM; in the series on Leishmania infantum [13], 0.6 µM.

`CCCCCCCCCCCCCCCCOP(=O)([O-])OCC[N+](C)(C)C` [MILTEFOSINE]: the EC50 in the series on Leishmania infantum [12] was determined as 47.6 µM; in the series on THP-1 it was 19 µM; with Leishmania infantum [13], 2 µM.

One may read the IC50 as the point on the concentration scale where inhibition reaches its midpoint. The term half-life denotes the time in which the quantity being followed falls by half. The term EC50 denotes the concentration that produces a half-maximal response.
